ChEMBL document CHEMBL1201862, “PubChem BioAssay data set” (2004)
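Five compound concentrations were applied to cells in 96-well plates for 48 hours; endpoints were derived by simple linear interpolation of the resulting dose-response curve. GI50 marks 50% less growth.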 Calls of active or inactive are those of the source. Cut-off read from the data, not from the text of the source: active = GI50 up to about 1.1 µM and inactive = higher.

Key:
Experiment in all cases: NCI-60 cell line screen, 48 h
HCC 2998 = test system: HCC 2998
HT-29 = test system: HT-29
MDA-MB-435 = test system: MDA-MB-435
HOP-62 = test system: HOP-62
SK-MEL-2 = test system: SK-MEL-2
ACHN = test system: ACHN
CCRF-CEM = test system: CCRF-CEM
BT-549 = test system: BT-549
SF-268 = test system: SF-268
KM12 = test system: KM12
RXF 393 = test system: RXF 393
DU-145 = test system: DU-145
OVCAR-8 = test system: OVCAR-8
SF-295 = test system: SF-295
NCI/ADR-RES = test system: NCI/ADR-RES
SK-MEL-28 = test system: SK-MEL-28
PC-3 = test system: PC-3
UACC-257 = test system: UACC-257
NCI-H522 = test system: NCI-H522

Row | Structure (SMILES) | GI50 (HCC 2998) | GI50 (HT-29) | GI50 (MDA-MB-435) | GI50 (HOP-62) | GI50 (SK-MEL-2) | GI50 (ACHN) | GI50 (CCRF-CEM) | GI50 (BT-549) | GI50 (SF-268) | GI50 (KM12) | GI50 (RXF 393) | GI50 (DU-145) | GI50 (OVCAR-8) | GI50 (SF-295) | GI50 (NCI/ADR-RES) | GI50 (SK-MEL-28) | GI50 (PC-3) | GI50 (UACC-257) | GI50 (NCI-H522)
1 | O=C1CC(=O)N(C2CCCCC2)C(=O)N1c1ccccc1S(=O)(=O)Oc1ccccc1 | > 100 µM (inactive) | > 100 µM (inactive) | > 100 µM (inactive) | 33 µM (inactive) | > 100 µM (inactive) | 19.1 µM (inactive) | 14.9 µM (inactive) | 49.5 µM (inactive) | 90.6 µM (inactive) | > 100 µM (inactive) | > 100 µM (inactive) | > 100 µM (inactive) | > 100 µM (inactive) | > 100 µM (inactive) | > 100 µM (inactive) | > 100 µM (inactive) | > 100 µM (inactive) | > 100 µM (inactive) | –
2 | CN1C(=O)c2c(c3c4ccccc4n(C)c3c3c2c2ccccc2n3C)C1=O | > 100 µM (inactive) | > 100 µM (inactive) | > 100 µM (inactive) | > 100 µM (inactive) | > 100 µM (inactive) | > 100 µM (inactive) | > 100 µM (inactive) | > 100 µM (inactive) | – | > 100 µM (inactive) | – | > 100 µM (inactive) | > 100 µM (inactive) | > 100 µM (inactive) | > 100 µM (inactive) | > 100 µM (inactive) | > 100 µM (inactive) | > 100 µM (inactive) | > 100 µM (inactive)
3 | NC(Cc1ccc(OCc2ccccc2)cn1)C(=O)O (stereo not given) | > 100 µM (inactive) | > 100 µM (inactive) | > 100 µM (inactive) | > 100 µM (inactive) | – | > 100 µM (inactive) | > 100 µM (inactive) | > 100 µM (inactive) | > 100 µM (inactive) | > 100 µM (inactive) | > 100 µM (inactive) | > 100 µM (inactive) | > 100 µM (inactive) | > 100 µM (inactive) | > 100 µM (inactive) | > 100 µM (inactive) | > 100 µM (inactive) | > 100 µM (inactive) | > 100 µM (inactive)
4 | Cc1nc(O)nc(NNCc2ccc(Cl)cc2)c1C(=O)Nc1ccc(Cl)cc1 | > 100 µM (inactive) | – | 88.1 µM (inactive) | > 100 µM (inactive) | > 100 µM (inactive) | – | > 100 µM (inactive) | > 100 µM (inactive) | – | > 100 µM (inactive) | > 100 µM (inactive) | 29.4 µM (inactive) | > 100 µM (inactive) | > 100 µM (inactive) | > 100 µM (inactive) | > 100 µM (inactive) | > 100 µM (inactive) | > 100 µM (inactive) | –
5 | COC(=O)C1=C(O)C(C(=O)OC)[C@]2(O)[C@H](C(=O)OC)[C@H]1C[C@@H](c1ccc(Cl)cc1)[C@H]2C(=O)OC (stereo not given in full) | 6.79 µM (inactive) | 12 µM (inactive) | 3.67 µM (inactive) | 7.67 µM (inactive) | 1.79 µM (inactive) | 7.45 µM (inactive) | 2.3 µM (inactive) | 6.12 µM (inactive) | 6.79 µM (inactive) | 11.5 µM (inactive) | 4.62 µM (inactive) | 7.11 µM (inactive) | 5.89 µM (inactive) | 4.28 µM (inactive) | 3.29 µM (inactive) | 9.06 µM (inactive) | 4.65 µM (inactive) | 7.6 µM (inactive) | –
6 | O=C1Oc2ccccc2C(=O)/C1=C/NC(=S)NCc1ccccc1 | 72.4 µM (inactive) | > 100 µM (inactive) | 54.3 µM (inactive) | 57.9 µM (inactive) | 19.3 µM (inactive) | 25.1 µM (inactive) | – | 5.09 µM (inactive) | – | 51.6 µM (inactive) | – | 93.1 µM (inactive) | 41.1 µM (inactive) | 55.6 µM (inactive) | 66.1 µM (inactive) | > 100 µM (inactive) | 54.3 µM (inactive) | 90.6 µM (inactive) | –
7 | COc1ccc(N2CCN(c3ccc4c(c3)NCC(=O)N4)CC2)cc1 | > 100 µM (inactive) | > 100 µM (inactive) | > 100 µM (inactive) | > 100 µM (inactive) | 37.3 µM (inactive) | 32.3 µM (inactive) | 29.7 µM (inactive) | 34 µM (inactive) | 74.1 µM (inactive) | 21.3 µM (inactive) | – | > 100 µM (inactive) | 26.7 µM (inactive) | 69.2 µM (inactive) | 21.9 µM (inactive) | > 100 µM (inactive) | 36.2 µM (inactive) | 95.5 µM (inactive) | 14.6 µM (inactive)
8 | Clc1ccc(Nc2nnc(CCCCCCCCc3nnc(Nc4ccc(Cl)cc4)o3)o2)cc1 | 36.4 µM (inactive) | 32 µM (inactive) | 42.7 µM (inactive) | 37.9 µM (inactive) | 50.8 µM (inactive) | 38.8 µM (inactive) | – | 31.9 µM (inactive) | – | 23.4 µM (inactive) | – | 25.5 µM (inactive) | – | 35.8 µM (inactive) | 36 µM (inactive) | 48.6 µM (inactive) | 38.1 µM (inactive) | 37.4 µM (inactive) | 21.5 µM (inactive)
9 | Clc1cccc(-c2nc3cccc4c3n2Cc2ncccc2-4)c1 | > 100 µM (inactive) | > 100 µM (inactive) | > 100 µM (inactive) | 36.1 µM (inactive) | – | 8.2 µM (inactive) | > 100 µM (inactive) | > 100 µM (inactive) | 32.8 µM (inactive) | > 100 µM (inactive) | 21.9 µM (inactive) | > 100 µM (inactive) | 92.3 µM (inactive) | 41.6 µM (inactive) | > 100 µM (inactive) | > 100 µM (inactive) | 73.6 µM (inactive) | > 100 µM (inactive) | > 100 µM (inactive)
10 | O=C(NS(=O)(=O)Nc1ccc(Cl)cc1)OCc1ccc(Cl)cc1Cl | 12.1 µM (inactive) | 20.5 µM (inactive) | 22.1 µM (inactive) | 36.7 µM (inactive) | 28.8 µM (inactive) | 38.5 µM (inactive) | 57 µM (inactive) | 28.4 µM (inactive) | 1.02 µM (active) | 21.4 µM (inactive) | – | 21.3 µM (inactive) | 31.3 µM (inactive) | 17.2 µM (inactive) | 21.9 µM (inactive) | 29.6 µM (inactive) | 31.4 µM (inactive) | 46.6 µM (inactive) | –
11 | Cn1c(-c2ccccc2)cc(-c2ccc3c(c2)OCO3)c1-c1ccsc1 | > 100 µM (inactive) | > 100 µM (inactive) | > 100 µM (inactive) | > 100 µM (inactive) | > 100 µM (inactive) | > 100 µM (inactive) | > 100 µM (inactive) | > 100 µM (inactive) | > 100 µM (inactive) | > 100 µM (inactive) | > 100 µM (inactive) | > 100 µM (inactive) | > 100 µM (inactive) | > 100 µM (inactive) | > 100 µM (inactive) | > 100 µM (inactive) | > 100 µM (inactive) | > 100 µM (inactive) | –
12 | CCN1/C(=C/C#C/C(C)=C\c2sc3ccccc3[n+]2CC)Sc2ccccc21 | 3.01 µM (inactive) | 1.35 µM (inactive) | 2.36 µM (inactive) | 5.37 µM (inactive) | 2.44 µM (inactive) | 1.16 µM (inactive) | – | 0.558 µM (active) | 2.86 µM (inactive) | 1.28 µM (inactive) | 2.14 µM (inactive) | 3.42 µM (inactive) | 2.07 µM (inactive) | 2.94 µM (inactive) | 3.53 µM (inactive) | 3.35 µM (inactive) | 1.82 µM (inactive) | 1.32 µM (inactive) | 0.377 µM (active)
